Patent US11434219B2, “Purification of cannabinoids from crude cannabis oil” (TABA IP, LLC, priority 2018, dated 2022)
≈ marks a conversion by molar mass, not a printed value.

Experiment: Solvent survey: solubility of THCA in solvents
Format: physicochemical
Experimental: Crystallization of THCA solvent survey study is carried out according the general procedure described above at 0° C. using crystalline THCA standard (rather than cannabis oil). The solubility (g/mL) provided an indication of loading capacities: higher loading capacities are desirable to make the process more efficient. The theoretical yield of THCA is determined based on the purity of the standard, which was 97.4%.

In the case of CCCCCc1cc2c(c(O)c1C(=O)O)[C@@H]1C=C(C)CC[C@H]1C(C)(C)O2 [THCA, tetrahydrocannabinolic acid], the “Solubility (g/mL) 22.8° C.” value (solvent 1-Butanol) is reported as 0.151 g/mL (≈ 421 mM), the “Solubility (g/mL) 30° C.” value (solvent 1-Butanol) is reported as 0.258 g/mL (≈ 720 mM) and the “Solubility (g/mL) 40° C.” value (solvent 1-Butanol) is reported as 0.514 g/mL (≈ 1430 mM). The “Solubility (g/mL) 22.8° C.” value (solvent Acetone) was 0.818 g/mL (≈ 2280 mM), the “Solubility (g/mL) 30° C.” value (solvent Acetone) was 1.063 g/mL (≈ 2970 mM) and the “Solubility (g/mL) 40° C.” value (solvent Acetone) was 1.440 g/mL (≈ 4020 mM). The “Solubility (g/mL) 22.8° C.” value (solvent Acetonitrile) was 0.562 g/mL (≈ 1570 mM), the “Solubility (g/mL) 30° C.” value (solvent Acetonitrile) was 0.953 g/mL (≈ 2660 mM) and the “Solubility (g/mL) 40° C.” value (solvent Acetonitrile) was 1.230 g/mL (≈ 3430 mM). The “Solubility (g/mL) 22.8° C.” value (solvent DMA) was 0.498 g/mL (≈ 1390 mM), the “Solubility (g/mL) 30° C.” value (solvent DMA) was 0.650 g/mL (≈ 1810 mM) and the “Solubility (g/mL) 40° C.” value (solvent DMA) was 0.892 g/mL (≈ 2490 mM). For the same molecule, the “Solubility (g/mL) 22.8° C.” value (solvent DMF) was 0.612 g/mL (≈ 1710 mM), the “Solubility (g/mL) 30° C.” value (solvent DMF) was 0.929 g/mL (≈ 2590 mM) and the “Solubility (g/mL) 40° C.” value (solvent DMF) was 1.171 g/mL (≈ 3270 mM). For the same molecule, the “Solubility (g/mL) 22.8° C.” value (solvent Ethyl Acetate) was 0.555 g/mL (≈ 1550 mM), the “Solubility (g/mL) 30° C.” value (solvent Ethyl Acetate) was 0.931 g/mL (≈ 2600 mM) and the “Solubility (g/mL) 40° C.” value (solvent Ethyl Acetate) was 1.216 g/mL (≈ 3390 mM). For the same molecule, the “Solubility (g/mL) 22.8° C.” value (solvent Heptane) was 0.092 g/mL (≈ 257 mM), the “Solubility (g/mL) 30° C.” value (solvent Heptane) was 0.155 g/mL (≈ 432 mM) and the “Solubility (g/mL) 40° C.” value (solvent Heptane) was 0.258 g/mL (≈ 720 mM). For the same molecule, the “Solubility (g/mL) 22.8° C.” value (solvent THF) was 0.743 g/mL (≈ 2070 mM), the “Solubility (g/mL) 30° C.” value (solvent THF) was 1.057 g/mL (≈ 2950 mM) and the “Solubility (g/mL) 40° C.” value (solvent THF) was 1.324 g/mL (≈ 3690 mM). The “Solubility (g/mL) 22.8° C.” value (solvent n-Propanol) was 0.140 g/mL (≈ 391 mM), the “Solubility (g/mL) 30° C.” value (solvent n-Propanol) was 0.360 g/mL (≈ 1000 mM) and the “Solubility (g/mL) 40° C.” value (solvent n-Propanol) was 0.585 g/mL (≈ 1630 mM).
